Laboratory results as given in publication PMC9138505, “Small Molecule 20S Proteasome Enhancer Regulates MYC Protein Stability and Exhibits Antitumor Activity in Multiple Myeloma” (Biomedicines, 2022).
Several values for one entry are separate records, joined by “and”; a condition that tells them apart may be missing. Equal entries are not always repeated.

Tested on: RPMI-8226 cells
Assay: Gene expression profiling, NanoString nCounter PanCancer Pathways Panel, ROSALIND analysis
Assay type: cell-based, human
Conditions: RPMI-8226, TCH-165 samples 1-3
Description: RPMI-8226 cells were treated with vehicle or TCH-165 (10 μM) for 4 h. Total RNA was obtained using the mirVana miRNA Isolation Kit, with phenol (Thermofisher Scientific; AM1560; Waltham, MA, USA). Total RNA was quantified by Qubit (Thermofisher Scientific; Q32855; Waltham, MA, USA). and gene expression was evaluated against the nCounter® PanCancer Pathways Panel^TM according to the standard NanoString protocol.
Data were analyzed by ROSALIND® [36] with a hyperscale architecture developed by ROSALIND, Inc. (San Diego, CA, USA). Normalization, fold changes and p-values were calculated using criteria provided by NanoString. ROSALIND follows the nCounter® Advanced Analysis protocol of dividing counts within a lane by the geometric mean of the normalizer probes from the same lane. Housekeeping probes to be used for normalization are selected based on the geNorm algorithm, as implemented in the NormqPCR R library. Fold changes and p-values are calculated using the fast method as described in the nCounter Advanced Analysis 2.0 User Manual. The p-value adjustment is performed using the Benjamini–Hochberg method of estimating false discovery rates (FDR). Clustering of genes for the final heatmap of differentially expressed genes was done using the PAM (Partitioning Around Medoids) method using the fpc R library. Hypergeometric distribution was used to analyze the enrichment of pathways, gene ontology, domain structure and other ontologies. The topGO R library was used to determine local similarities and dependencies between GO terms in order to perform Elim pruning correction. Several database sources were referenced for enrichment analysis, including Interpro [40], NCBI [41], MSigDB [42, 43], REACTOME [44], WikiPathways. Enrichment was calculated relative to a set of background genes relevant to the experiment.

Structure (SMILES): CCOC(=O)[C@]1(c2ccccc2)N=C(c2ccc(OC)cc2)N(Cc2ccccc2)[C@@H]1c1ccc(NCc2ccccc2)cc1 [TCH-165]
- LIFR normalized gene expression: 4.488 and 4.2133 and 4.184
- LIG4 normalized gene expression: 6.629 and 6.817 and 6.796
- LRP2 normalized gene expression: 4.308 and 3.657 and 4.341
- LTBP1 normalized gene expression: 6.378 and 6.402 and 6.366
- MAD2L2 normalized gene expression: 10.1336 and 10.1942 and 10.1645
- MAP2K1 normalized gene expression: 10.0208 and 10.0248 and 9.981
- MAP2K2 normalized gene expression: 10.108 and 10.1628 and 10.1486
- MAP2K4 normalized gene expression: 7.169 and 6.524 and 6.893
- MAP2K6 normalized gene expression: 4.924 and 4.855 and 5.0068
- MAP3K1 normalized gene expression: 10.6246 and 10.5002 and 10.4469
- MAP3K5 normalized gene expression: 6.704 and 6.918 and 6.75
- MAP3K8 normalized gene expression: 6.308 and 6.569 and 6.506
- MAP3K12 normalized gene expression: 5.571 and 5.476 and 5.0682
- MAP3K13 normalized gene expression: 7.948 and 7.905 and 8.019
- MAP3K14 normalized gene expression: 7.978 and 7.887 and 7.688
- MAPK1 normalized gene expression: 8.625 and 8.638 and 8.461
- MAPK3 normalized gene expression: 9.736 and 9.67 and 9.676
- MAPK8IP1 normalized gene expression: 5.86 and 4.739 and 5.0068
- MAPK8IP2 normalized gene expression: 4.208 and 3.657 and 4.39
- MAPK8 normalized gene expression: 7.835 and 7.506 and 7.597
- MAPK9 normalized gene expression: 8.658 and 8.617 and 8.437
- MAPK10 normalized gene expression: 5.101 and 4.2133 and 4.876
- MAPK12 normalized gene expression: 7.499 and 7.109 and 7.1906
- MAPT normalized gene expression: 5.355 and 5.351 and 5.5707
- MCM2 normalized gene expression: 10.402 and 10.4329 and 10.4331
- MCM4 normalized gene expression: 11.2136 and 11.1596 and 11.149
- MCM5 normalized gene expression: 10.3105 and 10.197 and 10.1802
- MCM7 normalized gene expression: 13.0908 and 13.0284 and 12.9867
- MDC1 normalized gene expression: 10.2272 and 10.2142 and 10.1897
- MDM2 normalized gene expression: 10.4133 and 10.3393 and 10.3264
- MECOM normalized gene expression: 7.156 and 6.927 and 6.814
- MED12 normalized gene expression: 8.477 and 8.644 and 8.469
- MEN1 normalized gene expression: 9.714 and 9.644 and 9.611
- MET normalized gene expression: 5.924 and 5.093 and 5.613
- MFNG normalized gene expression: 9.115 and 9.16 and 9.044
- MGMT normalized gene expression: 8.108 and 8.085 and 8.034
- MLF1 normalized gene expression: 5.86 and 5.9093 and 5.712
- MLH1 normalized gene expression: 9.392 and 9.378 and 9.34
- MLLT3 normalized gene expression: 6.776 and 6.688 and 6.449
- MLLT4 normalized gene expression: 8.677 and 8.597 and 8.636
- MMP3 normalized gene expression: 4.401 and 3.27 and 4.341
- MMP7 normalized gene expression: 5.571 and 5.242 and 5.238
- MMP9 normalized gene expression: 4.649 and 4.855 and 4.0068
- MNAT1 normalized gene expression: 8.319 and 8.402 and 8.366
- MPL normalized gene expression: 4.308 and 4.154 and 3.805
- MPO normalized gene expression: 4.986 and 4.569 and 4.876
- MSH2 normalized gene expression: 9.884 and 9.976 and 9.945
- MSH6 normalized gene expression: 10.1754 and 9.989 and 10.0455
- MTOR normalized gene expression: 9.008 and 8.985 and 8.893
- MUTYH normalized gene expression: 6.74 and 6.512 and 6.663
- MYB normalized gene expression: 9.142 and 9.166 and 9.1468
- MYC normalized gene expression: 12.5611 and 12.5765 and 12.4952
- MYCN normalized gene expression: 7.142 and 6.817 and 6.893
- MYD88 normalized gene expression: 8.723 and 8.683 and 8.623
- NASP normalized gene expression: 8.252 and 8.093 and 8.307
- NBN normalized gene expression: 10.4814 and 10.4965 and 10.3946
- NCOR1 normalized gene expression: 9.769 and 9.64 and 9.618
- NF1 normalized gene expression: 9.325 and 9.277 and 9.208
- NF2 normalized gene expression: 9.205 and 9.097 and 9.096
- NFATC1 normalized gene expression: 5.355 and 5.427 and 5.461
- NFE2L2 normalized gene expression: 10.2602 and 10.1647 and 10.2373
- NFKB1 normalized gene expression: 8.156 and 8.124 and 8.177
- NFKBIA normalized gene expression: 9.249 and 9.354 and 9.231
- NGFR normalized gene expression: 5.445 and 5.154 and 5.098
- NODAL normalized gene expression: 5.445 and 5.093 and 4.876
- NOG normalized gene expression: 4.208 and 4.739 and 4.653
- NOS3 normalized gene expression: 5.044 and 4.524 and 4.5707
- NOTCH1 normalized gene expression: 8.62 and 8.452 and 8.261
- NOTCH2 normalized gene expression: 10.6545 and 10.568 and 10.5378
- NPM1 normalized gene expression: 7.667 and 7.529 and 7.245
- NPM2 normalized gene expression: 2.401 and 2.739 and 2.805
- NR4A1 normalized gene expression: 6.924 and 6.944 and 6.759
- NR4A3 normalized gene expression: 4.488 and 4.427 and 4.769
- NRAS normalized gene expression: 7.581 and 7.678 and 7.663
- NTF3 normalized gene expression: 7.456 and 7.1988 and 7.251
- NTHL1 normalized gene expression: 9.395 and 9.328 and 9.318
- NTRK1 normalized gene expression: 4.793 and 3.569 and 3.483
- NTRK2 normalized gene expression: 4.793 and 5.093 and 4.5707
- NUMBL normalized gene expression: 5.955 and 5.891 and 5.693
- NUPR1 normalized gene expression: 6.073 and 6.228 and 6.3536
- OSM normalized gene expression: 5.101 and 5.636 and 5.0682
- PAK3 normalized gene expression: 4.488 and 4.27 and 3.876
- PAX3 normalized gene expression: 4.649 and 4.029 and 4.0682
- PAX5 normalized gene expression: 4.986 and 3.962 and 4.693
- PAX8 normalized gene expression: 5.723 and 5.297 and 5.366
- PBRM1 normalized gene expression: 9.417 and 9.5 and 9.432
- PBX1 normalized gene expression: 8.776 and 8.575 and 8.5707
- PBX3 normalized gene expression: 6.53 and 6.427 and 6.426
- PCK1 normalized gene expression: 3.208 and 3.3768 and 3.0682
- PCNA normalized gene expression: 10.03 and 10.0442 and 10.0502
